Activity calls are given as the source filed them. The rule behind the calls is not given here.

The subject of this test is C2C12 WNT3A-conditioned, nuclear beta-catenin. The experiment in a line: activation of intranuclear CTNNB1 in the C2C12 line, dose-response, cell-based, Wnt-3a conditioned medium, half-maximal inhibitory concentration (AID 1117325).
Take `Cc1nc2ccc(CN(C)c3ccc(C(=O)N[C@@H](CCC(=O)O)C(=O)O)s3)cc2c(=O)[nH]1`: the IC50 was 0.0127 µM.

Take `C#C[C@]1(O)CC[C@H]2[C@@H]3CCc4cc(OC5CCCC5)ccc4[C@H]3CC[C@@]21C`: the IC50 is > 20 µM (inactive).

`COc1cc(NCc2ccc3nc(N)nc(N)c3c2C)cc(OC)c1OC`: the IC50 was 0.0033 µM.

`O=C1OC2(c3cc(Br)c(O)cc3Oc3c2cc(Br)c(O)[c]3[Hg])c2ccccc21` (stereo unspecified): the IC50 is 16.9 µM (inactive).

`CCCCC1C(=O)N(c2ccccc2)N(c2ccc(O)cc2)C1=O` (stereo unspecified): the IC50 was > 20 µM (inactive).

For the compound `CCCCCCCCCCCCNCCNCCNCC(=O)O`, the IC50 was > 20 µM (inactive).

One may read the IC50 as the concentration that gives 50% inhibition.

(Values after PubChem BioAssay AID1117325 (Cheminformatics & Chemogenomics Research Group (CCRG), …, 2015).)
